{"source": "patent US10927350B2", "about": "“Methods for generating stem cell-derived beta cells and uses thereof” (President and Fellows of Harvard College, priority 2014, dated 2021)", "test_system": "endocrine progenitor cells directed to differentiate into SC-β cells", "experiment": "Stimulation index (glucose stimulated insulin secretion) of SC-β cells generated from endocrine progenitor cells in the presence of a JNK inhibitor", "assay_type": "cell-based, human", "settings": "Stimulation index=[insulin@20 mM glucose]/[insulin@2 mM glucose]; Relative Stim Index=Stim Index/Stim Index of Control; versus SC-β cells generated in the absence of the JNK inhibitor; inhibitor added to Step 6 (FIG. 1, FIG. 2C)", "protocol": "Stimulation index=[insulin@20 mM glucose]/[insulin@2 mM glucose]. Relative Stim Index=Stim Index/Stim Index of Control.\nFIG. 2C is a schematic illustrating an exemplary method for generating SC-β cells by adding a JNK inhibitor to Step 6 of the exemplary protocol shown in FIG. 2B.\nThe methods of the present invention contemplate contacting cells (e.g., endocrine progenitor cells or precursors thereof) with effective amounts of one or more agents that decrease the level and/or activity of JNK. An “effective amount” of an agent (or composition containing such agent) refers to the amount sufficient to achieve a desired effect, e.g., when delivered to a cell or subject according to a selected administration form, route, and/or schedule. As will be appreciated by those of ordinary skill in this art, the absolute amount of a particular agent or composition that is effective may vary depending on such factors as the desired biological or pharmacological endpoint, the agent to be delivered, the target tissue, etc. Those of ordinary skill in the art will further understand that an “effective amount” may be contacted with cells or administered in a single dose, or the desired effect may be achieved by use of multiple doses. An effective amount of a composition may be an amount sufficient to reduce the severity of or prevent one or more symptoms or signs of a disorder (e.g., diabetes). […]"}
{"smiles": "O=C1c2ccccc2-c2n[nH]c3cccc1c23", "note": "[SP600125, Anthra[1,9-cd]pyrazol-6(2H)-on]", "values": [{"measurement": "Relative stimulation index of generated SC-β cells", "result": "greater stimulation index"}]}
